Results published in patent US9918968B2, “Rapamycin analogs targeting proteasome function in the treatment of cancer” (THE BOARD OF REGENTS OF THE UNIVERSITY OF TEXAS SYSTEM, priority 2013, dated 2018).

Columns and labels:
[1] = tested on: HeLa.S3 cervical carcinoma cells; assay: Live/dead cell count, HeLa.S3 cells; type: cell-based, human; conditions: up to 500 nM, 48 hrs
Description: (§1) Culture Collection; ATCC) were cultured according to ATCC specifications: HeLa.S3 cervical adenocarcinoma, MCF7 breast adenocarcinoma, MDA-MB-231 breast adenocarcinoma (representing triple negative breast cancer), and RPMI 8226 myeloma. The cells were grown in 24 or 12-well cell culture plates. When the cells reached about 60% confluency (surface-growing HeLa.S3,MCF7 and MDA-MB-231) or a density of about 7×10^5 (suspension-growing RPMI 8226), the inhibitors dissolved in DMSO or the solvent (DMSO) diluted in respective culture medium were added and the cells were further cultured for additional 48 hours. […] The final concentration of the solvent was 1% (vol/vol). The number of live and dead cells after the treatment was approximated with calcein AM and ethidium homodimer (LiveDead test, Invitrogen) according to manufacturer's protocol, or by a Trypan Blue exclusion assay. In short, the cells after the treatment were washed three times with PBS and overlaid (surface-growing) or mixed (suspension-growing) with 4 microM calcein AM and 2 microM ethidium homodimer in PBS. Fluorescence of calcein and DNA-bound ethidium homodimer was measured with Fluoroskan Ascent plate reader, at 485 nm (excitation)/538 nm (emission) and 530 nm/619 nm, respectively. The cell counts were approximated using standard curves of live and digitonin-killed cells prepared for each strain. Alternatively, after cell treatment the medium was removed, the surface growing cells were overlaid with Trypan Blue solution, and the colorless (live) and blue-colored (dead) cells were counted under the inverted microscope.

[2] = tested on: T1, 20S core with 19S, 11S, tRpt5 or tPA200; assay: Activation of 20S core ChT-L activity by α face ligands (19S, 11S, tRpt5, tPA200); type: biochemical, human; conditions: 10 μM derivative
T1 construct: purchased Enzo LifeSciences (20S, 11S); Boston Biochemicals (19S complex)
Description: (§2) Human purified proteasome complexes were purchased from Enzo LifeSciences or Boston Biochemicals (19S complex). BODIPY-casein (Invitrogen/Molecular Probes) was used as a model protein substrate, with increasing fluorescence of BODIPY labeled peptide products of degradation monitored for up to 8 hours at 37° C. The peptidase activity of the enzyme was measured as arbitrary intensity units of the released fluorescent group 7-amino-4-methylcoumarin (AMC) from peptide substrates, as described. The common substrates specific for the three kinds of active sites: succinyl-LeuLeuValTyr-7-amido-4-methylcoumarin (Suc-LLVY-MCA; for the ChT-L activity; Bachem), butoxycarbonyl-LeuArgArg-MCA (BocLRR-MCA; for T-L; Bachem) and carbobenzoxy-LeuLeuGlu-MCA (CbzLLE-MCA; for PGPH; Enzo Life Sciences International, Inc.) were used at 100 μM final concentrations, unless stated otherwise (Gaczynska and Osmulski, 2005). Proteasome substrates, rapamycin, its derivatives, and competing peptides were stocked in DMSO and diluted 100-fold in the reaction mixtures. The Rpt5 and PA200 C-terminal peptides were synthesized in the Departmental Peptide Synthesis Core using the standard SPPS chemistry. To activate the latent 20S proteasome, 0.005% (final concentration) of sodium dodecyl sulfate (SDS) was used. The reactions were carried out in 96 well plates, with 2.3 nM proteasome and other components as indicated dissolved in 50 mM Tris-HCl buffer (pH 8.0) and incubated at 37° C. for up to 1 hour. The fluorescence of products was monitored every 2 minutes with a Fluoroskan Ascent plate reader. Reaction rates were calculated from smoothed linear segment of kinetic curves using OriginPro 8.6 (OriginLabs, Northampton, Mass.). For the determination of an inhibition type, at least six distinct substrate concentrations and two inhibitor concentrations were used. The kinetic parameters of inhibition were analyzed in terms of the Michaelis-Menten formalism using the enzyme kinetic module of SigmaPlot v.12 (Systat Software, Inc, San Jose, Calif.) to perform the respective calculations.
De novo assembly of 19S from subunits is a complex process assisted by chaperones. In vitro, and likely also in cells, the 26S can also be reconstructed from 20S and the already-assembled 19S particle in the presence of ATP (Smith et al., 2005). Enhancement of the peptidase activities of the core proteasome is an established test for efficiency of the in vitro reconstruction. […] In contrast, a pretreatment of 20S with 5 μM rapamycin before adding ATP and 19S totally abrogated the activation, leaving the proteasome almost 40% inhibited instead (FIG. 6).

[3] = tested on: MCF7 breast carcinoma cells; assay: Live/dead cell count, MCF7 cells; type: cell-based, human; conditions: seco-rapamycin alone, 48 hrs, 100% = total cell count in control
Description: as §1, with “In short, the cells after the treatment were washed three times with PBS and overlaid (surface-growing) or mixed (suspension-growing) with 4 microM calcein AM and 2 microM ethidium homodimer in PBS.” left out, “The cell counts were approximated using standard curves of live and digitonin-killed cells prepared for each strain.” left out

RPMI 8226 myeloma cells = assay: Live/dead cell count, RPMI 8226 myeloma cells; type: cell-based, human; conditions: 48 hrs
Description: as §1

mTOR = mTOR (Homo sapiens, UniProt P42345+P62942); conditions: cited from earlier work
[4] = tested on: T2, human 20S proteasome, PGPH peptidase; assay: PGPH peptidase activity of purified human 20S proteasome (CbzLLE-MCA); type: biochemical
T2 construct: purchased Enzo LifeSciences
Description: as §2
IC50 values (a drug concentration causing 50% inhibition of the indicated enzymatic activity) were calculated for ChT-L and PGPH peptidases. Kd (dissociation constant) and Bmax (maximal activation effect achieved; in % above the control activity) values were calculated for the T-L peptidase. Mean±SD from n=2 or 3 experiments, or data from representative experiments set in duplicates or triplicates, are presented in the table. All three peptidase activities changed by no more than ±20%, without a concentration-dependent trend, upon treatment with up to 10 μM of rapamycin unrelated mTOR inhibitors PI-103 or NVP-BEZ235, in two independent experiments.

[5] = target: T3, human 20S proteasome, ChT-L peptidase; assay: ChT-L peptidase activity of purified human 20S proteasome (Suc-LLVY-MCA); type: biochemical; conditions: latent human 20S proteasome
T3 construct: purchased Enzo LifeSciences
Description: as §2, with “The common substrates specific for the three kinds of active sites: succinyl-LeuLeuValTyr-7-amido-4-methylcoumarin (Suc-LLVY-MCA; for the ChT-L activity; Bachem), butoxycarbonyl-LeuArgArg-MCA (BocLRR-MCA; for T-L; Bachem) and carbobenzoxy-LeuLeuGlu-MCA (CbzLLE-MCA; for PGPH; Enzo Life Sciences International, Inc.) were used at 100 μM final concentrations, unless stated otherwise (Gaczynska and Osmulski, 2005).” left out, “The reactions were carried out in 96 well plates, with 2.3 nM proteasome and other components as indicated dissolved in 50 mM Tris-HCl buffer (pH 8.0) and incubated at 37° C. for up to 1 hour.” left out, “calculations. […]” for “calculations.”
The in vitro assay for testing the ChT-L peptidase activity of the purified human 20S proteasome was performed as described above.

CO[C@@H](C[C@@H]1CC[C@@H](C)[C@](O)(C(=O)C(=O)N2CCCC[C@H]2C(=O)[O-])O1)/C(C)=C/C=C/C=C/[C@@H](C)C[C@@H](C)C(=O)[C@H](OC)[C@H](O)/C(C)=C/[C@@H](C)C(=O)/C=C/[C@H](C)C[C@@H]1CC[C@@H](O)[C@H](OC)C1.[Na+] [seco-rapamycin]
cytotoxicity [1]: did not reveal cytotoxicity
lowering of activation by tRpt5 ([2]; 10 μM tRpt5): about 30%
inhibition of proteasome with or without tPA200 ([2]; presence or absence of 10 μM tPA200): about 40%
dead cells count [3]: about 60%
drop in the live cell count (RPMI 8226 myeloma cells; 100 nM): 50%
cells alive (RPMI 8226 myeloma cells; 200 nM): only one-third of the control cells alive
effect on mTOR function (mTOR): not to affect the mTOR function
inhibition of post-acidic (PGPH) cleavages ([4]; 5 μM): ~50%
IC50 ([4]; latent human 20S proteasome): 6.45 ± 0.78 µM
IC50 [5]: > 20 µM
